Experimental data published in ChEMBL document CHEMBL1156650, “Furan oligomers and beta-carbolines from terrestrial streptomycetes” (J Nat Prod, 2008).
The source made the active and inactive calls.

Columns and labels:
Assay type in all cases: functional, organism-based
Candida albicans = assay: Antimicrobial activity against Candida albicans by agar diffusion test
Rhizomucor miehei = assay: Antimicrobial activity against Mucor miehei by agar diffusion test
Chlorella vulgaris = assay: Antimicrobial activity against Chlorella vulgaris by agar diffusion test
Chlorella sorokiniana = assay: Antimicrobial activity against Chlorella sorokiniana by agar diffusion test
Staphylococcus aureus = assay: Antimicrobial activity against Staphylococcus aureus by agar diffusion test
[1] = system: Streptomyces viridochromogenes; assay: Antimicrobial activity against Streptomyces viridochromogenes Tu57 by agar diffusion test
Escherichia coli = assay: Antimicrobial activity against Escherichia coli by agar diffusion test
Desmodesmus subspicatus = assay: Antimicrobial activity against Scenedesmus subspicatus by agar diffusion test
Bacillus subtilis = assay: Antimicrobial activity against Bacillus subtilis by agar diffusion test

Measured: Activity

OCc1ccc(-c2nccc3c2[nH]c2ccccc23)o1
inactive: all assays above

CC(=O)OCc1ccc(COC(C)=O)o1
inactive: all assays above

CC1=C(O)C(=O)/C(=C\c2ccc(CO)o2)O1
inactive: all assays above

COC(=O)/C=C/C(=O)c1nccc2c1[nH]c1ccccc12
inactive: all assays above

COC(OCc1ccc(C(OC)OCc2ccc(C=O)o2)o1)c1ccc(CO)o1 (configuration not stated)
inactive: all assays above

COC(OCc1ccc(C=O)o1)c1ccc(CO)o1 (configuration not stated)
inactive: all assays above

CC(=O)OCc1ccc(CO)o1
inactive: all assays above

O=C(O)/C=C/C(=O)c1nccc2c1[nH]c1ccccc12
inactive: all assays above
